Measured values from the supplement of paper PMC10307832.

Tests used:
Experiment in all cases: relative viability (nuclei count vs DMSO), 5 days (fraction); higher = more cells survive
Apatinib + Alpelisib = compound: N#CC1(c2ccc(NC(=O)c3cccnc3NCc3ccncc3)cc2)CCCC1 [Apatinib] + Cc1nc(NC(=O)N2CCC[C@H]2C(N)=O)sc1-c1ccnc(C(C)(C)C(F)(F)F)c1 [Alpelisib] (partner 2 µM)
How it was run: (§1)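 Medians of duplicate plates are given as relative viability. That measure is the nuclei count in treated wells divided by the count in vehicle wells. Counts were taken on 4× images of lung cancer cell lines in 1536-well plates, 5 days after pin-tool dosing the day after seeding with one drug alone or a fixed anchor-drug dose plus five library-drug doses (not always all listed) in √10 steps.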

Metformin + Lapatinib = compound: CN(C)C(=N)NC(=N)N [Metformin] + CS(=O)(=O)CCNCc1ccc(-c2ccc3ncnc(Nc4ccc(OCc5cccc(F)c5)c(Cl)c4)c3c2)o1 [Lapatinib] (partner 2 µM)
How it was run: as §1

Metformin + Pictilisib = compound: CN(C)C(=N)NC(=N)N [Metformin] + CS(=O)(=O)N1CCN(Cc2cc3nc(-c4cccc5[nH]ncc45)nc(N4CCOCC4)c3s2)CC1 [Pictilisib] (partner 1 µM)
How it was run: as §1

Apatinib + Lapatinib = compound: N#CC1(c2ccc(NC(=O)c3cccnc3NCc3ccncc3)cc2)CCCC1 [Apatinib] + CS(=O)(=O)CCNCc1ccc(-c2ccc3ncnc(Nc4ccc(OCc5cccc(F)c5)c(Cl)c4)c3c2)o1 [Lapatinib] (partner 2 µM)
How it was run: as §1

Cell Line	relative viability (Apatinib + Alpelisib; first compound 0.08 µM)	relative viability (Apatinib + Alpelisib; first compound 0.253 µM)	relative viability (Apatinib + Alpelisib; first compound 0.8 µM)	relative viability (Apatinib + Alpelisib; first compound 2.53 µM)	relative viability (Apatinib + Alpelisib; first compound 8 µM)	relative viability (Metformin + Lapatinib; first compound 10 µM)	relative viability (Metformin + Lapatinib; first compound 31.62 µM)	relative viability (Metformin + Lapatinib; first compound 100 µM)	relative viability (Metformin + Lapatinib; first compound 316.23 µM)	relative viability (Metformin + Lapatinib; first compound 1000 µM)	relative viability (Metformin + Pictilisib; first compound 10 µM)	relative viability (Metformin + Pictilisib; first compound 31.62 µM)	relative viability (Metformin + Pictilisib; first compound 100 µM)	relative viability (Metformin + Pictilisib; first compound 316.23 µM)	relative viability (Metformin + Pictilisib; first compound 1000 µM)	relative viability (Apatinib + Lapatinib; first compound 0.08 µM)	relative viability (Apatinib + Lapatinib; first compound 0.253 µM)	relative viability (Apatinib + Lapatinib; first compound 0.8 µM)	relative viability (Apatinib + Lapatinib; first compound 2.53 µM)	relative viability (Apatinib + Lapatinib; first compound 8 µM)
NCI-H1651	1.03	1.11	0.786	0.851	0.83	0.877	0.81	0.822	0.749	0.865	0.762	0.887	0.674	0.883	0.876	0.914	0.909	0.709	0.698	0.76
COR-L23	0.966	0.743	0.772	0.774	0.652	1.21	0.969	0.734	0.773	1.07	0.756	0.886	0.754	0.707	0.759	0.919	1.16	1.05	0.792	0.722
A-427	1.14	1.02	1.19	1.02	1	0.943	1.06	1.04	0.994	0.951	0.79	0.896	0.713	0.68	0.763	1.06	1.1	1.06	0.984	0.982
201T	1.01	1.08	1.03	1.09	1.05		1.08	1.07	0.989	1		0.709	0.701	0.688	0.685	1.07	0.976	0.983	0.975	1.01
NCI-H2023	0.64	0.675	0.587	0.514	0.559		0.975	0.74		0.764		0.269	0.262		0.252	0.751	0.945	0.911	0.74	0.737
NCI-H2085	1.05	0.931	0.931	0.858	0.792	0.716	0.805	0.801	0.725	0.868	0.408	0.492	0.472	0.439	0.545	0.726	0.683	0.873	0.619	0.768
LXF-289	1.13	1.06	1.03	0.998	0.964	0.812	0.879	0.879	0.843	0.887	0.73	0.685	0.746	0.661	0.76	0.935	0.894	0.888	0.838	0.875
NCI-H1975	0.662	0.691	0.508	0.562	0.576	0.98	1.27	0.935	1.05	1.06	0.285	0.327	0.306	0.314	0.321	0.929	1.15	0.835	0.738	0.904
LU99A	0.565	0.618	0.457	0.49	0.461	0.92	0.904	0.837	0.864	0.985	0.248	0.295	0.247	0.27	0.241	1.02	1.07	0.969	0.821	0.954
HCC-827	0.999	0.991	0.831	0.825	0.469		0.216	0.185	0.232	0.18		0.914	1.13	0.996	1.15	0.197	0.177	0.165	0.19	0.196
BEN	1.04	0.92	0.983	0.862	0.727	0.976	1.12	1.15	0.925	0.583	0.831	0.754	0.626	0.625	0.769	0.604	0.67	0.764	0.578	0.591
NCI-H1755	0.933	0.946	0.909	0.899	0.845	0.763	0.956	1.02	0.929	0.99	0.366	0.402	0.471	0.412	0.336	1.03	1	1.04	1.08	0.722
LOU-NH91	0.762	0.699	0.586	0.616	0.568	0.784	0.775	0.725	0.755	0.71	0.555	0.469	0.53	0.496	0.549	0.727	0.726	0.754	0.712	0.77
LC-2-ad	0.9	0.798	0.802	0.824	0.652		1.03	0.853	0.799	1		0.471	0.334	0.426	0.408	0.925	0.998	0.947	0.9	0.71
ChaGo-K-1											0.824	1.12	0.686	0.801	0.906					
COR-L 105	1.01	1.23	0.82	0.921	0.731	0.415	0.36	0.462	0.426	0.405	0.401	0.488	0.478	0.463	0.333	0.358	0.342	0.354	0.336	0.33
NCI-H441	0.872	0.82	0.752	0.726	0.421						0.527		0.499	0.394	0.589					
LCLC-103H	0.971	0.87	1.02	0.918	0.911						0.713	0.717	0.711	0.669	0.607					
